From publication PMC3633906, “A High Throughput Screen for RGS Proteins Using Steady State Monitoring of Free Phosphate Formation” (PLoS ONE, 2013)
Structures can show the parent of a compound that is named as a salt. Where two headings read alike, the source gives them in different places.

Experiments:
RGS4(Δ7) mutant = RGS4(Δ7) mutant (Rattus norvegicus, UniProt P49799, C132A/C148A/C183A/C197A/C204A/C71A/C95A); test: Malachite green steady-state GAP assay, cysteine-null RGS4(Δ7) counter screen; assay type: biochemical
Description: Rat RGS4, sharing 97% sequence identity with human RGS4, and the cysteine to alanine mutant were expressed as fusion proteins of maltose binding protein (MBP), a 10× His tag, and a TEV protease recognition site fused to the N-terminus of an RGS4 construct containing amino acids 51–205, in the vector pMALC2H10T in BL21-DE3 E. coli (Stratagene; Santa Clara, CA). The single cysteine-null Δ51-RGS4 construct was generated by site-directed mutagenesis as described previously. Expression and purification were performed as described previously. Purified protein was incubated with TEV protease at a molar ratio of 10∶1(fusion protein:TEV protease) overnight at 4°C. The cleaved Δ51-RGS4 was then isolated by purification over an ANX column (GE Healthcare; Fairfield, CT) in 50 mM HEPES at pH 6.8 and 50 mM NaCl. The flow through, containing the ∼99% Δ51-RGS4 as determined by SDS-PAGE gel, was then collected and concentrated using a YM-10 centrifugal concentrator (Millipore; Billerica, MA). The concentration of Δ51-RGS4 was calculated based on the absorbance at 280 nm utilizing a Take-3 plate (Biotek; Winnoski, VT) in a Synergy 2 plate reader (Biotek; Winnoski, VT).
(§1) Malachite green compound activity and Z-factor analysis conducted in 384-well plates utilized optimized parameters as discerned from the time-course experiments. 10 µL of 4× compound or MGB was dispensed into appropriate wells. For single point assay, 160 µM compound was used, and for dose-response assays a series of ½ log dilutions from 100 µM final to 316pM final was used. 10 µL of the optimized 4× RGS4 concentration, 0.8 µM in MGB, was dispensed into all wells. After a spin down at 100×g for 1 min, the assay plate was incubated at 25°C for 30 min. 10 µL of the optimized Gαi concentration, 20 µM in MGB, was dispensed to each well and incubated at 25°C for 5 min. 10 µL of the optimized 4× GTP, 600 µM in MGB, was then added to the samples. After spinning the samples down at 100×g for 1 min, the samples were incubated at 25°C for 75 min. The samples were then stamped with 10 µL of DS and incubated for 25 min before reading absorbance at 642 nm.
Data was analyzed using Prism analysis software (Graphpad Software; La Jolla, CA). Initial malachite green assay optimization was accomplished by comparing the fit of both straight line and hyperbolic functions. The fit that mostly closely resembled the data was used to represent the data. IC50 values for each compound were determined by fitting the data to a sigmoidal curve, which was used to calculate the IC50 value.

RGS4(WT) = target: T1, RGS4(WT) (Rattus norvegicus, UniProt P49799); test: Malachite green steady-state GAP assay, RGS4(WT); assay type: biochemical; conditions: for Mean absorbance at 642 nm, positive control: 10 µM final compound
T1 construct: fused to the N-terminus of an RGS4 construct containing amino acids 51–205; 10× His tag (N, cleaved yes); made in house; host or cells: E. coli BL21-DE3
T1 sequence (P49799 51-205): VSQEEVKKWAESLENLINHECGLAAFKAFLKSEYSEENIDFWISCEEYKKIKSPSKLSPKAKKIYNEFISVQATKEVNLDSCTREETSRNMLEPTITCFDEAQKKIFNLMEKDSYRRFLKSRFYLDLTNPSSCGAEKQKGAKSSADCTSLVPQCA
Protocol: Stock solutions of each of the 3 components of the developing solution were prepared, which are stable for long-term storage. Malachite solution was prepared by first diluting concentrated sulfuric acid 1∶5 in distilled water. Once the solution cooled to 25°C, malachite solution was prepared by dissolving 0.44 g of malachite green oxalate (Alfa Aesar; Ward Hill, MA) in 360 mL diluted acid and stored at 25°C. Molybdate solution, containing 7.5% ammonium molybdate tetrahydrate (Alfa Aesar; Ward Hill, MA), was prepared in distilled water and stored at 4°C. Tween-20 solution, used to maintain solubility of the phosphate-molybdate-malachite complex, was prepared as 11% (v/v) Tween-20 in distilled water. On the day of use, 2.5 mL molybdate solution and 0.2 mL Tween-20 solution were added to 10 mL of malachite solution and mixed quickly to avoid precipitation of malachite. The final ratio of the Developing Solution (DS) was 50∶12.5∶1 (malachite:molybdate:Tween-20). The peak absorbance was determined by a 2 nm step wavelength scan, using 10 µM Na3PO4 at pH 7.5 as the negative control.
The malachite green assay involves 5 components, with a 1 min spin at 100×g between each addition. For time-course experiments, the first component was 10 µL Malachite Green Assay Buffer (MGB; 50 mM HEPES at pH 7.5, 100 mM NaCl, 5 mM EDTA, 10 mM MgCl2, 0.01% lubrol) into a clear 384-well plate (ThermoFisher Scientific; Waltham, MA) using a MultiDrop dispenser (PerkinElmer; Waltham, MA). The second component dispensed was 10 µL of a 4× stock of RGS4, typically 200 nM to 1.6 µM with the target final concentration of 50 nM to 400 nM, diluted in MGB. After a 30 min incubation, 10 µL of the third component, 4× stock of Gαi diluted in MGB, was dispensed (typically between 4 µM and 80 µM with a desired final concentration 1 µM to 20 µM). After a minimum of 5 min incubation, 10 µL of the fourth component, 4× GTP diluted in MGB, was added at 10 minute intervals from 1–110 minutes. The 0 min time point was excluded due to amount of time required to proceed from GTP addition to quenching with DS. 4× GTP concentrations varied between 0.2 mM and 2.4 mM, with a target final concentration of 50 µM to 600 µM. To terminate the reaction, 10 µL of DS was added to each well using a Microlab Star liquid handling robot (Hamilton Robotics; Reno, NV), to achieve a final ratio 4∶1 (sample:developing solution). Following the spin, the plate was incubated for 25 min before being read at 642 nm for absorbance using an EnVision plate reader (PerkinElmer; Waltham, MA). RGS8 was evaluated similarly to as described for RGS4, with 4× stock concentrations from 20 nM and 800 nM. For each time-course, corresponding GTP only wells were included to account for spontaneous hydrolysis of GTP over time.
as §1
1536-well Z-factor analysis and compound library screen were accomplished largely as described for 384-well plates. Initial screen and Z-factor determination was performed in a final concentration of 5.5% dimethylsulfoxide. […]

[1] = parameters: method as in PMID 20700722, PMID 21088503; conditions: rodent models; cited from earlier work
[2] = malachite green assay, RGS4(Δ7) mutant, concentration-response, read-out: IC50 against RGS4(Δ7)

Sequence of RGS4(Δ7) mutant (P49799 51-205 C71A/C95A/C132A/C148A/C183A/C197A/C204A limits assumed): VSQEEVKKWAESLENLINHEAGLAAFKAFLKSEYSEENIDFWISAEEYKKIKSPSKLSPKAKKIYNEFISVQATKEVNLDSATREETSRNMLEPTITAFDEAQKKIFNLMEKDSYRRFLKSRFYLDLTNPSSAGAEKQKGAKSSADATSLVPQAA

| Structure (SMILES) | Inhibition of RGS4(Δ7) (in words) (RGS4(Δ7) mutant; malachite green assay) | IC50 (RGS4(Δ7) mutant; [2]) | Inhibition of RGS4 (in words) (RGS4(WT); malachite green assay) | IC50 (RGS4(Δ7) mutant) | IC50 (RGS4(WT)) | other results |
| --- | --- | --- | --- | --- | --- | --- |
| CC(=O)Oc1c2c(c(CC=C(C)C)c3c1C(=O)C1=C[C@@H]4CC5C(C)(C)OC(C/C=C(\C)C(=O)O)(C4=O)[C@@]15O3)OC(C)(CCC=C(C)C)C=C2 (some centres unmarked) [UI-2034, acetyl-isogambogic acid] | weak inhibitors | 181 µM | weak inhibitors |  |  |  |
| CC1=C(O)C(=O)C=C2C1=CC=C1[C@@]2(C)CC[C@@]2(C)[C@@H]3C[C@](C)(C(=O)O)CC[C@]3(C)CC[C@]12C [UI-1590, celastrol] |  |  |  | 88 µM | 0.724 µM | Toxicity in vivo [1]: minor toxicity |
| C[n+]1cc2c3c(ccc2c2ccc4cc5c(cc4c21)OCO5)OCO3 [UI-5, sanguinarium sulfate] |  | 454 µM |  |  |  | IC50 (RGS4(WT); malachite green assay, 200 nM RGS4, concentration-response, read-out: IC50 against RGS4(WT)): 126 µM |
| CC(C)=CCC[C@]1(C)C=Cc2c(O)c3c(c(CC=C(C)C)c2O1)O[C@]12C(=C[C@@H]4C[C@H]1C(C)(C)O[C@@]2(C/C=C(/C)C(=O)O)C4=O)C3=O [UI-1907, gambogic acid] | weak inhibitors |  | weak inhibitors | 51 µM | 16 µM |  |
| Cc1ccc(-n2sc(=O)n(Cc3ccc(F)cc3)c2=O)cc1 [CCG-50014, reference compound] |  |  |  |  |  | Mean absorbance at 642 nm, positive control (RGS4(WT); 384-well plate, 192 wells, negative control (buffer) mean 1.74): 0.92; Mean absorbance at 642 nm, positive control (RGS4(WT); 1536-well plate, 5.5% DMSO, 128 wells, negative control (buffer) mean 0.67): 0.30 |
